Measurements reported in patent US9394285B2 (Pfizer Inc., priority 2013, dated 2016).
Values joined by “and” are separate entries in the source; they are usually repeats but may differ in a detail not shown here. Equal values may be shown once.

Biological target: human AMPK (full-length γ1, β1 and α1 subunits) (Homo sapiens (Human), UniProt Q13131+Q9Y478)
Experiment: AMPK in vitro biochemical assay (33P-based, SAMS peptide, PP2A dephosphorylation)
Conditions: for EC50: activation of phosphorylated AMPK, 33P-ATP, SAMS peptide, PP2A treatment, 4-parameter fit; for Emax: read-out: Maximum
Method in brief: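 Phosphorylated full-length α1β1γ1 AMPK (E. coli-expressed, His-purified, gel-filtered) preincubated 15 min RT with compound in HEPES pH 7.5, 10 mM MgCl2 buffer, then PP2A added to dephosphorylate pThr172.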

[1] = counts as % of positive control wells (enzyme, allosteric activator or AMP, PP2A and substrate)

Chain of human AMPK (full-length γ1, β1 and α1 subunits) (Q13131 whole entry): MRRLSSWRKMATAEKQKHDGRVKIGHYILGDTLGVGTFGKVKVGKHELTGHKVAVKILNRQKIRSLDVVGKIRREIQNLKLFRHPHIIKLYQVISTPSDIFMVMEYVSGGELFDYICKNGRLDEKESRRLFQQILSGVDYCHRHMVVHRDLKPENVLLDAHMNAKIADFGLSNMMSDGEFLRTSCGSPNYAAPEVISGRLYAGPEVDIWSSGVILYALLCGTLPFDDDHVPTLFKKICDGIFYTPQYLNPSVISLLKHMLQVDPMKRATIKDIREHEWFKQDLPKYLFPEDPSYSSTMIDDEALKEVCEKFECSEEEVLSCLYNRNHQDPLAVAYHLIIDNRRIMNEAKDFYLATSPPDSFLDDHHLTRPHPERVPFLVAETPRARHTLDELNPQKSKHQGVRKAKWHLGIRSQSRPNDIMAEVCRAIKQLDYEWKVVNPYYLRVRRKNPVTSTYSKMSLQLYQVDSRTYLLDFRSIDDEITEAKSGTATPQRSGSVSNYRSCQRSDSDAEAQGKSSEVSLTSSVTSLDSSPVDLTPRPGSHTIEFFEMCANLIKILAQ
Chain of human AMPK (full-length γ1, β1 and α1 subunits) (Q9Y478 whole entry): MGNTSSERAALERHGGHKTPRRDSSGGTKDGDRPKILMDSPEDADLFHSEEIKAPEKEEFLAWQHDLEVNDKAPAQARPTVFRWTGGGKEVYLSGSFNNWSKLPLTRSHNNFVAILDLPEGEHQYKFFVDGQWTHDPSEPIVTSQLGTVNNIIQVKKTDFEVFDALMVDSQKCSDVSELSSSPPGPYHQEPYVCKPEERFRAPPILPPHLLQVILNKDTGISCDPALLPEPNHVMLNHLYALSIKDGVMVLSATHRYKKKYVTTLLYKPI
Chain of human AMPK (full-length γ1, β1 and α1 subunits) (P54619 whole entry partner): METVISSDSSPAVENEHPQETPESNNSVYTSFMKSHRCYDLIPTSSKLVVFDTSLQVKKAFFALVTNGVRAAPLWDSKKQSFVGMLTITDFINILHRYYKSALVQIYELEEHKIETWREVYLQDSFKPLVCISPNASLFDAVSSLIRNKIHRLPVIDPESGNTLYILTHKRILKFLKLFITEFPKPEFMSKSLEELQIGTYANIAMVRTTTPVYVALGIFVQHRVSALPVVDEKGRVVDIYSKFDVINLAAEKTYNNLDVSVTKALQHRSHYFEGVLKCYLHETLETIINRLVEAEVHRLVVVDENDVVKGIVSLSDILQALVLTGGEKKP

Row | EC50 | Emax [1] [%] | Maximum [1] [%] | SMILES
1 | 1080 nM | 98 | – | O=C(O)c1c[nH]c2cc(F)c(-c3ccc(OCCCO)cc3)c(F)c12 [Example 28, 4,6-difluoro-5-[4-(3-hydroxypropoxy)phenyl]-1H-indole-3-carboxylic acid]
2 | 12.9 nM and 10.3 nM | 110 | – | CC(C)(CO)c1ccc(-c2cc3c(C(=O)O)c[nH]c3cc2Cl)cc1F [Example 163, 6-chloro-5-[3-fluoro-4-(1-hydroxy-2-methylpropan-2-yl)phenyl]-1H-indole-3-carboxylic acid]
3 | 47.8 nM | 104 | – | O=C(O)c1n[nH]c2cc(Cl)c(-c3ccc4c(c3)CCC4)cc12 [Example 116, 6-Chloro-5-(2,3-dihydro-1H-inden-5-yl)-1H-indazole-3-carboxylic acid]
4 | 32.5 nM | 74 | – | O=C(O)c1c[nH]c2cc(Cl)c(-c3ccc(OCCCN4CCOCC4=O)cc3)cc12 [Example 54, 6-chloro-5-{4-[3-(3-oxomorpholin-4-yl)propoxy]phenyl}-1H-indole-3-carboxylic acid]
5 | 6.2 nM | 84 | – | COc1nc(N2CC[C@H](O)C2)ccc1-c1cc2c(C(=O)O)c[nH]c2cc1Cl [Example 184, 6-chloro-5-{6-[(3S)-3-hydroxypyrrolidin-1-yl]-2-methoxypyridin-3-yl}-1H-indole-3-carboxylic acid]
6 | 369 nM | 102 | – | O=C(O)c1n[nH]c2cc(Cl)c(-c3ccc4c(c3)OCCO4)cc12 [Example 121, 6-Chloro-5-(2,3-dihydrobenzo[b][1,4]dioxin-6-yl)-1H-indazole-3-carboxylic acid]
7 | 44.3 nM | 110 | – | CN1CCC(c2ccc(-c3cc4c(C(=O)O)c[nH]c4cc3Cl)cc2)C1 (stereo not drawn) [Example 74, 6-chloro-5-[4-(1-methylpyrrolidin-3-yl)phenyl]-1H-indole-3-carboxylic acid]
8 | 165 nM | 112 | – | O=C(O)c1c[nH]c2cc(F)c(-c3ccc(C4CCCO4)cc3)cc12 (single isomer, unassigned) [Example 150, 6-fluoro-5-[4-(tetrahydrofuran-2-yl)phenyl]-1H-indole-3-carboxylic acid]
9 | 17.3 nM | 118 | – | O=C(O)c1c[nH]c2cc(Cl)c(-c3ccc(OCc4ncccn4)cc3)cc12 [Example 160, 6-chloro-5-[4-(pyrimidin-2-ylmethoxy)phenyl]-1H-indole-3-carboxylic acid]
10 | 52.4 nM | – | – | O=C(O)c1n[nH]c2cc(Cl)c(-c3ccc([C@H]4C[C@@H](O)C4)cc3)cc12 [Example 120, 6-Chloro-5-(4-((1S,3S)-3-hydroxycyclobutyl)phenyl)-1H-indazole-3-carboxylic acid]
11 | 110 nM | 89 | – | O=C(O)c1c[nH]c2cc(Cl)c(-c3ccc(OCCN4CCNCC4)cc3)cc12 [Example 48, 6-chloro-5-{4-[2-(piperazin-1-yl)ethoxy]phenyl}-1H-indole-3-carboxylic acid]
12 | 1.7 nM | 68 | – | O=C(O)c1c[nH]c2cc(Cl)c(-c3ccc(-c4ccccc4)cc3)cc12 [Example 43, 5-(biphenyl-4-yl)-6-chloro-1H-indole-3-carboxylic acid]
13 | 169 nM | 82 | – | O=C(O)c1c[nH]c2cc(Cl)c(-c3ccc(N4CCCC4=O)cc3)cc12 [Example 64, 6-chloro-5-[4-(2-oxopyrrolidin-1-yl)phenyl]-1H-indole-3-carboxylic acid]
14 | – | – | 88 | O=C(O)c1n[nH]c2cc(Cl)c(-c3ccc(C4CC(O)C4)cc3)cc12 [Example 120, 6-Chloro-5-(4-((1S,3S)-3-hydroxycyclobutyl)phenyl)-1H-indazole-3-carboxylic acid]
15 | 65.4 nM | 99 | – | O=C(O)c1c[nH]c2cc(Cl)c(-c3ccc(OCC4COC4)cc3)cc12 [Example 89, 6-chloro-5-[4-(oxetan-3-ylmethoxy)phenyl]-1H-indole-3-carboxylic acid]
16 | 17.5 nM | 142 | – | O=C(O)c1c[nH]c2cc(Cl)c(-c3ccc(C4(CO)CCC4)cc3F)cc12 [Example 164, 6-chloro-5-{2-fluoro-4-[1-(hydroxymethyl)cyclobutyl]phenyl}-1H-indole-3-carboxylic acid]
17 | 8.3 nM | 80 | – | O=C(O)c1n[nH]c2cc(Cl)c(-c3ccc(C4(O)CCC4)cc3)cc12 [Example 103, 6-Chloro-5-(4-(1-hydroxycyclobutyl)phenyl)-1H-indazole-3-carboxylic acid]
18 | 76.9 nM | 88.9 | – | COc1nc(-c2cc3c(C(=O)O)c[nH]c3cc2Cl)ccc1N1CCC(O)C1 (stereo not drawn) [Example 149, 6-chloro-5-[5-(3-hydroxypyrrolidin-1-yl)-6-methoxypyridin-2-yl]-1H-indole-3-carboxylic acid]
19 | 182 nM | 108 | – | O=C(O)c1c[nH]c2cc(Cl)c(-c3ccc(CCCO)cc3)cc12 [Example 80, 6-chloro-5-[4-(3-hydroxypropyl)phenyl]-1H-indole-3-carboxylic acid]
20 | 830 nM | 91 | – | N#Cc1cc2[nH]cc(C(=O)O)c2cc1-c1ccc(OCCO)cc1 [Example 95, 6-cyano-5-[4-(2-hydroxyethoxy)phenyl]-1H-indole-3-carboxylic acid]
21 | 73 nM | 94 | – | CN1CCN(c2ccc(-c3cc4c(C(=O)O)n[nH]c4cc3Cl)cc2)CC1 [Example 106, 6-Chloro-5-(4-(4-methylpiperazin-1-yl)phenyl)-1H-indazole-3-carboxylic acid]
22 | 121 nM | 140 | – | O=C(O)c1c[nH]c2cc(F)c(-c3ccc(OCCC4CCCO4)cc3)c(F)c12 (stereo not drawn) [Example 191, 4,6-difluoro-5-{4-[2-(tetrahydrofuran-2-yl)ethoxy]phenyl}-1H-indole-3-carboxylic acid]
23 | 17.9 nM | 92 | – | O=C(O)c1c[nH]c2cc(Cl)c(-c3ccc(OCc4cccnc4)cc3)cc12 [Example 94, 6-chloro-5-[4-(pyridin-3-ylmethoxy)phenyl]-1H-indole-3-carboxylic acid]
24 | 2.4 nM | 112 | – | O=C(O)c1c[nH]c2cc(Cl)c(-c3ccc(-c4ccccc4O)cc3)cc12 [Example 67, 6-chloro-5-(2′-hydroxybiphenyl-4-yl)-1H-indole-3-carboxylic acid]
25 | 58.1 nM | 78 | – | O=C(O)c1c[nH]c2cc(Cl)c(-c3ccc(C4(C(=O)O)CC4)cc3)cc12 [Example 88, 5-[4-(1-carboxycyclopropyl)phenyl]-6-chloro-1H-indole-3-carboxylic acid]
26 | 4.3 nM | 107 | – | O=C(O)c1c[nH]c2cc(Cl)c(-c3ccc(C4(CO)CCC4)cc3)cc12 [Example 72, 6-chloro-5-{4-[1-(hydroxymethyl)cyclobutyl]phenyl}-1H-indole-3-carboxylic acid]
27 | 82.8 nM | 16 | – | O=S(=O)(O)c1c[nH]c2cc(Cl)c(-c3ccc(C4CCOCC4)cc3)cc12 [Example 134, 6-Chloro-5-(4-(tetrahydro-2H-pyran-4-yl)phenyl)-1H-indole-3-sulfonic acid]
28 | 225 nM | 94 | – | CS(=O)(=O)N1CCC1c1ccc(-c2cc3c(C(=O)O)c[nH]c3cc2Cl)cc1 (stereo not drawn) [Example 45, 6-chloro-5-{4-[1-(methylsulfonyl)azetidin-2-yl]phenyl}-1H-indole-3-carboxylic acid]
